# Test results reported in ChEMBL document CHEMBL1201862, “PubChem BioAssay data set” (2004).
# Activity calls are given as the source filed them.
# Test system: not listed separately
# Experiment: Luminescence Cell-Based Dose Confirmation HTS to Identify Inhibitors of Platelet Dense Granule Release. [Related pubchem assays: 1663 (Primary HTS), 1678 (Summary of Project)]
# Format: functional
# Details: not given
row,Structure (SMILES),EC50
1,COc1ccc(C(=O)Nc2sc(C)c(C)c2CN2CCOCC2)cc1,12.6 µM (active)
2,CCN(CC)C(=O)CSc1ncnc2c(-c3ccc(OC)cc3)nsc12,> 112 µM (not active)
3,O=C(Nc1cnn(Cc2c(Cl)cccc2Cl)c1)C(c1ccccc1)c1ccccc1,> 112 µM (not active)
4,COc1cccc(N2CCN(Cc3cccc(Cl)c3)CC2)c1,> 112 µM (not active)
5,CCOc1ccc(-c2cc(C(=O)NCC3CCCO3)c3ccccc3n2)cc1 (configuration not stated),> 112 µM (not active)
6,Cn1c(=O)oc2cc(S(=O)(=O)N3CCN(c4cccc(Cl)c4)CC3)ccc21,> 112 µM (not active)
7,COc1cccc(-c2nn(-c3ccccc3)cc2C(=O)O)c1,> 112 µM (not active)
8,CCOC(=O)c1c(C)c(-c2ccccc2)n(CC(=O)N2CCCC2)c1C,> 112 µM (not active)
9,O=C(/C=C/Nc1ccc(Br)cc1F)c1ccco1,8.72 µM (active)
10,O=[N+]([O-])c1cc(N=Nc2ccc3ccccc3c2)ccc1O,2.24 µM (active)
11,COc1ccccc1CNC(=O)c1cccc(N(C)C)c1,> 112 µM (not active)
12,CCCCn1c(SCN2C(=O)c3ccccc3C2=O)nc2cc(S(N)(=O)=O)ccc21,> 112 µM (not active)
13,Cc1cc(F)ccc1NC(=O)c1cc(S(=O)(=O)N2CCCC2)cn1C,> 112 µM (not active)
14,Cc1ccc(C(=O)N2CCN(c3ccc([N+](=O)[O-])c(NCc4ccco4)c3)CC2)cc1,> 112 µM (not active)
15,COc1cc2c(cc1OC)-c1cc(NC3CC3)nc(=O)n1CC2,17.6 µM (active)

# Test system: not listed separately
# Experiment: HEp-2 cell cytotoxicity, dose response, cytotoxicity control for RSV inhibitor project, HTS (AID 2410)
# Format: functional
# Details: human respiratory syncytial virus
row,Structure (SMILES),CC50
1,Cc1ccc(-c2nc3ccc(C(=O)O)cc3nc2-c2ccc(C)cc2)cc1,19.4 µM (active)

# Target: FAD-linked sulfhydryl oxidase ALR (Homo sapiens, UniProt P55789)
# Experiment: inhibitors of human ALR sulfhydryl oxidase, dose response, biochemical, H2O2 detection, luminescence, cherry-pick (AID 493248)
# Details: not given
# Chain of FAD-linked sulfhydryl oxidase ALR (P55789 whole entry): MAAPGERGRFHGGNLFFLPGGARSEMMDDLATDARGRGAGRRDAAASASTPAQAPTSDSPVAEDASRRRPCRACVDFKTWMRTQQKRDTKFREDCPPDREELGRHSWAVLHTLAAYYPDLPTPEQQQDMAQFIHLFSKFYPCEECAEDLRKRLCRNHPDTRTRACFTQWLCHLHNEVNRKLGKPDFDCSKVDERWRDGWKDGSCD
row,Structure (SMILES),AC50
1,C=CCN1C(=O)NC(=O)/C(=C\c2ccc(-c3ccccc3[N+](=O)[O-])o2)C1=O,0.507 µM (active)

# Test system: not listed separately
# Experiment: inhibitors of SNCA 5'UTR-driven reporter translation, confirmation, H4 neuroglioma cells, luminescence (AID 1988)
# Format: functional, cell-based
# Details: not given
row,Structure (SMILES),EC50
1,O=C(/C=C/Nc1ccc(Br)cc1F)c1ccco1,4.41 µM (active)

# Test system: not listed separately
# Experiment: inhibitors of intracellular T. cruzi replication, confirmation, NIH3T3 host cells, beta-gal luminescence (AID 2044);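 also: intracellular parasites grown in NIH/3T3 mouse fibroblasts as host cells; luminescent beta-galactosidase reporter signal from transgenic T. cruzi replicating inside host cells; inhibitors lower the luminescence signal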
# Format: functional, cell-based
# Details: not given
row,Structure (SMILES),EC50
1,O=C(Nc1cnn(Cc2c(Cl)cccc2Cl)c1)C(c1ccccc1)c1ccccc1,2.06 µM (active)

# Test system: not listed separately
# Experiment: cytotoxicity toward NIH3T3 fibroblasts, dose response, counter-screen, cell-based, ATP luminescence, mouse fibroblasts (AID 2010);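 also: cells exposed to compound for about 90 hours before reading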
# Format: functional
# Details: not given
row,Structure (SMILES),EC50
1,O=C(Nc1cnn(Cc2c(Cl)cccc2Cl)c1)C(c1ccccc1)c1ccccc1,> 60 µM (not active)

# Target: T1, Protein skinhead-1 (Caenorhabditis elegans, UniProt P34707)
# T1 sequence (P34707 whole entry): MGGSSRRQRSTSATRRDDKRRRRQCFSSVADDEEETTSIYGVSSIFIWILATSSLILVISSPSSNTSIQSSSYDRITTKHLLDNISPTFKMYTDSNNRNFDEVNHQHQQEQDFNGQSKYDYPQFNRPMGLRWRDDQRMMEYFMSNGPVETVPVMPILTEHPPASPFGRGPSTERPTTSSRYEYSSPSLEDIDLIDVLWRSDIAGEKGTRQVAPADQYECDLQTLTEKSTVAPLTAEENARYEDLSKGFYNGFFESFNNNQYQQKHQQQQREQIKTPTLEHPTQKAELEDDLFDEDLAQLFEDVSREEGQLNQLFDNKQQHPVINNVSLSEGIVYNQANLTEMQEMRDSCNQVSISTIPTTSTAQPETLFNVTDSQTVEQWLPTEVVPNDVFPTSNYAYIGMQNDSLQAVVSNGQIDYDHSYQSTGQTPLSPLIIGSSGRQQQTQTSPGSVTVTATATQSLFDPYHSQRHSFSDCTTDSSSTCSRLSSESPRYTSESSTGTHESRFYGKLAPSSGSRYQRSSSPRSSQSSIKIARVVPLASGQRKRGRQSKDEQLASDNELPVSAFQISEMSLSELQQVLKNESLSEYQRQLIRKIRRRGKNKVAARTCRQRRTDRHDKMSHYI
# Experiment: not given
# Format: functional
# Details: not given
row,Structure (SMILES),IC50
1,Clc1ccc(-c2nnc(-c3ccccc3)c(N3CCSCC3)n2)cc1,> 100 µM (inactive)
2,CCN(C(=O)CN1C(=O)S/C(=C\c2cccc(Cl)c2)C1=O)C1CCS(=O)(=O)C1 (configuration not stated),> 100 µM (inactive)
3,Clc1ncc(CSc2ccccc2)s1,84.8 µM (inactive)
4,COc1cccc(C2=NN(C(C)=O)C(c3cccs3)C2)c1 (configuration not stated),> 100 µM (inactive)
5,O=C(COc1ncnc2c(Cl)cc(Cl)cc12)N1CCCCC1,> 100 µM (inactive)
6,O=C(/C=C/Nc1ccc(Br)cc1F)c1ccco1,15.4 µM (active)
7,Cc1ccc(C)c(NC(=O)c2cc3ccccc3o2)c1,> 100 µM (inactive)
8,O=C(NC1CS(=O)(=O)CC1NCc1ccccc1)c1ccccc1 (configuration not stated),> 100 µM (inactive)
9,COc1cc2ccccc2cc1C(=O)Nc1ccncc1,52.3 µM (inactive)
10,c1ccc2c(c1)NC(c1ccncc1)n1c-2nc2ccccc21 (configuration not stated),> 100 µM (inactive)
11,Fc1ccc(-c2nnn(Cc3nc4ccccc4s3)n2)cc1,80.1 µM (inactive)
12,Cc1c(-c2nc(-c3cccnc3)no2)cccc1[N+](=O)[O-],> 100 µM (inactive)
13,O=C(COC(=O)[C@@H]1CCCN1C(=O)c1cccs1)NCCc1ccccc1,> 100 µM (inactive)
14,Clc1cccc(-c2nc3ccc(Br)cn3c2Cc2ccsc2)c1,54.8 µM (inactive)
15,CN(C)C(=O)c1cccc(-c2cnc3c(NC=O)cc(-c4ccc(N(C)C)cc4)cn23)c1,> 100 µM (inactive)

# Test system: not listed separately
# Experiment: cells
# Format: functional
# Details: not given
row,Structure (SMILES),IC50
1,COc1ccc(-c2nnc(NC(=O)C3=COCCO3)o2)cc1,8.62 µM (active)
2,CN1C(c2ccccc2)CC(=NO)CC1c1ccccc1 (configuration not stated),16.6 µM (active)
3,O=[N+]([O-])c1cc(N=Nc2ccc3ccccc3c2)ccc1O,> 50 µM (active)
4,CCOC(=O)COc1ccc2c(c1)c(C(C)=O)c(C)n2Cc1ccccc1,7.41 µM (active)
5,CCCCOC(=O)c1ccc(NC(=O)c2nn(C)cc2Br)cc1,12.2 µM (active)
6,O=C1N(c2ccc3c(c2)OCCO3)C(c2ccccc2)C1(F)F (configuration not stated),7.43 µM (active)
7,CCOC(=O)c1csc(-c2snnc2C)n1,13.2 µM (active)
8,COc1ccc(C(=O)CCN2CCCCCC2)cc1,22.2 µM (active)
9,Cc1ncsc1CCOC(=O)c1ccc([N+](=O)[O-])cc1,7.56 µM (active)
10,Cc1ccccc1OCC(=O)OCC(=O)c1ccc[nH]1,20.3 µM (active)
11,CCc1nnc(N/N=C/c2ccc(-c3ccc([N+](=O)[O-])cc3)o2)n1N,12.6 µM (active)
12,O=C(Nc1nccs1)c1ccccn1,9.47 µM (active)

# Test system: not listed separately
# Experiment: Shn3 3'UTR reporter inhibitors, dose response, cell-based, Clone20 osteoblasts, firefly luciferase, cherry-picked (AID 624132);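 also: firefly luciferase luminescence from reporter carrying the Shn3 3'UTR in osteoblasts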
# Format: functional
# Details: not given
row,Structure (SMILES),AC50
1,CCCCCn1c(=N)n(CC(O)COc2ccccc2OC)c2ccccc21 (configuration not stated),2.12 µM (active)
2,CCCCOc1ccc(Br)cc1CSC(=N)N,1.37 µM (active)
3,CC(C)NS(=O)(=O)c1ccc(CCC(=O)Nc2cc(Cl)ccc2Oc2ccccc2)cc1,7.65 µM (active)
4,CC(C)c1ccc(NC(=O)Nc2nc(C(N)C3CCCCC3)cs2)cc1 (configuration not stated),7.29 µM (active)

# Target: Genome polyprotein (dengue virus type 2, UniProt P29990)
# Experiment: Dengue-2 NS5 methyltransferase inhibitors, primary screen, biochemical, confirmation dose response (AID 588689)
# Format: functional
# Details: not given
# Chain of Genome polyprotein (P29990 2492-3391 limits assumed): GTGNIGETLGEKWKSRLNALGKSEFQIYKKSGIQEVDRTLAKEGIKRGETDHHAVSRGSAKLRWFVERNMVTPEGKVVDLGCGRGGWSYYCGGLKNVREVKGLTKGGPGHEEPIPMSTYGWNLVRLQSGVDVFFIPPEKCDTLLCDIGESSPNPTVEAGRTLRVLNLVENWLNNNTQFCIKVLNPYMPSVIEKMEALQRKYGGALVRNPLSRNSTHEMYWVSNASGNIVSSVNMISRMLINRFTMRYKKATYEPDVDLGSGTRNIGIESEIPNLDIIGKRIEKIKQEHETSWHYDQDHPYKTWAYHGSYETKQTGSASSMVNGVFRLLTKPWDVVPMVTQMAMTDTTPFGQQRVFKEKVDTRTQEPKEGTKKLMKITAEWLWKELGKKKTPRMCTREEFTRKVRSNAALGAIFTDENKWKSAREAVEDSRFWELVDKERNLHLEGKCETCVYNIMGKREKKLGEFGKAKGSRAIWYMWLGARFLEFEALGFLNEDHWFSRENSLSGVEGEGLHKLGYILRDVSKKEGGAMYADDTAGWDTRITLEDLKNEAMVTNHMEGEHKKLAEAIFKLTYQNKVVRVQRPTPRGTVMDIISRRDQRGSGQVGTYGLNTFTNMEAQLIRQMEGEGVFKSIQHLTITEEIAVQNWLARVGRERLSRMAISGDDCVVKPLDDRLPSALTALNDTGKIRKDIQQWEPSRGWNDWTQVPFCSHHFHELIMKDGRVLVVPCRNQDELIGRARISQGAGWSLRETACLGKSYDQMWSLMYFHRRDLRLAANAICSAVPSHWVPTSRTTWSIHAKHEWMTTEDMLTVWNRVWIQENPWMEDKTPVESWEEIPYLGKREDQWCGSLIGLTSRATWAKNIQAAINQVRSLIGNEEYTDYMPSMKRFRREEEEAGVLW
row,Structure (SMILES),IC50
1,C=CCc1cc(C=C2C(=O)NC(=O)NC2=O)cc(OC)c1OCc1ccc(C(=O)O)cc1,29.1 µM (active)
2,O=C(O)c1ccc(Cl)c(S(=O)(=O)Nc2ccc(S(=O)(=O)Nc3cccc(Cl)c3)cc2)c1,65.7 µM (active)
3,C=CCN1C(=O)NC(=O)/C(=C\c2ccc(-c3ccccc3[N+](=O)[O-])o2)C1=O,25.2 µM (active)
4,O=C1NC(=O)N(c2ccccc2)C(=O)/C1=C\c1ccccc1[N+](=O)[O-],38.5 µM (active)
5,O=[N+]([O-])c1c(O)nc(O)nc1/C=C/c1ccc(Cl)cc1Cl,49.1 µM (active)
6,C#CCOc1ccc(/C=C2/C(=O)ON=C2C)cc1Br,80.7 µM (active)
7,O=Nc1c(O)ccc2cc(S(=O)(=O)O)ccc12,45.7 µM (active)
8,O=C(O)CN1C(=O)C=CC1=O,> 100 µM (active)
9,Cc1ccc(-c2nc3ccc(C(=O)O)cc3nc2-c2ccc(C)cc2)cc1,55.3 µM (active)

# Target: Luciferin 4-monooxygenase (Photinus pyralis, UniProt P08659)
# Experiment: firefly luciferase enzyme inhibitors, dose response, biochemical, luminescence (AID 1891)
# Details: not given
# Chain of Luciferin 4-monooxygenase (P08659 whole entry): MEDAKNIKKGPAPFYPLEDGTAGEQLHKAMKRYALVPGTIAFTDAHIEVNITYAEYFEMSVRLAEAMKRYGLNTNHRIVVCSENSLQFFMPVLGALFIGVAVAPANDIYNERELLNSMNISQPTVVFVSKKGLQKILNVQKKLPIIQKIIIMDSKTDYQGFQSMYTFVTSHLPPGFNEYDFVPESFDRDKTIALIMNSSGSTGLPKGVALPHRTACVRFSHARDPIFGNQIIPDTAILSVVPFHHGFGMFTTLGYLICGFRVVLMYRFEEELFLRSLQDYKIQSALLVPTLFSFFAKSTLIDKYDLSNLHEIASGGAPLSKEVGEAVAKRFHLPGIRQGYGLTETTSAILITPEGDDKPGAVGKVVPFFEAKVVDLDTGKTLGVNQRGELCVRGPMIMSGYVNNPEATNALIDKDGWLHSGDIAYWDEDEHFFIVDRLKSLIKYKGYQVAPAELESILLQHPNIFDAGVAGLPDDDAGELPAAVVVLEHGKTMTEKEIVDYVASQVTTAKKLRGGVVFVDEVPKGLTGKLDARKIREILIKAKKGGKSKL
row,Structure (SMILES),EC50
1,COc1ccc(C(=O)Nc2sc(C)c(C)c2CN2CCOCC2)cc1,> 112 µM (not active)
2,CCN(CC)C(=O)CSc1ncnc2c(-c3ccc(OC)cc3)nsc12,> 112 µM (not active)
3,O=C(Nc1cnn(Cc2c(Cl)cccc2Cl)c1)C(c1ccccc1)c1ccccc1,> 112 µM (not active)
4,COc1cccc(N2CCN(Cc3cccc(Cl)c3)CC2)c1,> 112 µM (not active)
5,CCOc1ccc(-c2cc(C(=O)NCC3CCCO3)c3ccccc3n2)cc1 (configuration not stated),47.2 µM (active)
6,Cn1c(=O)oc2cc(S(=O)(=O)N3CCN(c4cccc(Cl)c4)CC3)ccc21,> 112 µM (not active)
7,COc1cccc(-c2nn(-c3ccccc3)cc2C(=O)O)c1,> 112 µM (not active)
8,CCOC(=O)c1c(C)c(-c2ccccc2)n(CC(=O)N2CCCC2)c1C,> 112 µM (not active)
9,O=C(/C=C/Nc1ccc(Br)cc1F)c1ccco1,0.482 µM (active)
10,O=[N+]([O-])c1cc(N=Nc2ccc3ccccc3c2)ccc1O,0.173 µM (active)
11,COc1ccccc1CNC(=O)c1cccc(N(C)C)c1,> 112 µM (not active)
12,CCCCn1c(SCN2C(=O)c3ccccc3C2=O)nc2cc(S(N)(=O)=O)ccc21,> 112 µM (not active)
13,Cc1cc(F)ccc1NC(=O)c1cc(S(=O)(=O)N2CCCC2)cn1C,> 112 µM (not active)
14,Cc1ccc(C(=O)N2CCN(c3ccc([N+](=O)[O-])c(NCc4ccco4)c3)CC2)cc1,41.3 µM (active)
15,COc1cc2c(cc1OC)-c1cc(NC3CC3)nc(=O)n1CC2,> 112 µM (not active)

# Test system: not listed separately
# Experiment: HepG2 cell cytotoxicity, dose response, cytotoxicity control for Shn3 inhibitor project, CellTiter-Glo, cherry-picked (AID 624134)
# Format: functional, cell-based
# Details: not given
row,Structure (SMILES),AC50
1,CCCCCn1c(=N)n(CC(O)COc2ccccc2OC)c2ccccc21 (configuration not stated),24.2 µM (active)
2,CCCCOc1ccc(Br)cc1CSC(=N)N,23.6 µM (active)
3,CC(C)NS(=O)(=O)c1ccc(CCC(=O)Nc2cc(Cl)ccc2Oc2ccccc2)cc1,57.7 µM (active)
4,Nc1nc(S)nc2c1C1(CCCCC1)Cc1ccccc1-2,> 70 µM (inactive)
5,CC(C)c1ccc(NC(=O)Nc2nc(C(N)C3CCCCC3)cs2)cc1 (configuration not stated),13.8 µM (active)

# Test system: not listed separately
# Experiment: control 3'UTR Renilla luciferase suppression, dose response, counter-screen for Shn3 inhibitor project, cell-based, Clone20-Shn3RL, cherry-picked (AID 624133)
# Format: functional
# Details: not given
row,Structure (SMILES),AC50
1,CCCCCn1c(=N)n(CC(O)COc2ccccc2OC)c2ccccc21 (configuration not stated),23.4 µM (active)
2,CCCCOc1ccc(Br)cc1CSC(=N)N,2.58 µM (active)
3,CC(C)NS(=O)(=O)c1ccc(CCC(=O)Nc2cc(Cl)ccc2Oc2ccccc2)cc1,22.5 µM (active)
4,Nc1nc(S)nc2c1C1(CCCCC1)Cc1ccccc1-2,25 µM (active)
5,CC(C)c1ccc(NC(=O)Nc2nc(C(N)C3CCCCC3)cs2)cc1 (configuration not stated),4.41 µM (active)

# Test system: not listed separately
# Experiment: growth suppression of beta-catenin-knockout colon cells, dose response, cell-based, HCT116, human colon tumor (AID 1045);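 also: HCT116 colon tumor cells with beta catenin knocked out; cells exposed to compound for 60 hours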
# Format: functional
# Details: not given
row,Structure (SMILES),EC50
1,COc1ccc(C(=O)CCN2CCCCCC2)cc1,124 µM (active)

# Test system: not listed separately
# Experiment: Luminescence Cell-Based Dose Response HTS to Identify Inhibitors of 5'UTR Stem-Loop Driven Prion Protein mRNA Translation in H4 Neuroglioblastoma Cells. [Related pubchem assays: 1827 (Project Summary), 1813 (Primary HTS)]
# Format: functional
# Details: not given
row,Structure (SMILES),EC50
1,O=C(/C=C/Nc1ccc(Br)cc1F)c1ccco1,3.64 µM (active)
